We go through 12 compounds from PMC6359636, “Advances in Drug Delivery and Biomaterials: Facts and Vision” (Pharmaceutics, 2019).

Peptide text beside a SMILES is read from it. * marks the point of attachment. 5FAM = O=C1OC2(c3ccc(O)cc3Oc3cc(O)ccc32)c2ccc(C(=O)*)cc21

Data set [1] deals with Human Corneal Epithelial (HCE) cells. Briefly: Inflammation model in HCE cells, secreted IL-6 by ELISA. Format: cell-based. The following applies: 72 h. For orientation: An ELISA detects its analyte on a solid surface through an enzyme-linked reagent.
For data set [2] the following is noted: rat, in vivo.
Experimental: In in vivo studies, male Sprague−Dawley rats received a femoral intravenous infusion of IND or oral administrations of MPs and free IND; the plasma of rats was analyzed by HPLC over time in order to evaluate the absolute bioavailability of oral doses.
Data set [3] is described as follows: ROS-scavenging activity, DPPH assay (SFNs). In kind it is biochemical. The source says: Osteoarthritis (OA) represents a musculoskeletal pathological condition characterized by chondrocytes apoptosis, extracellular matrix degradation and consequent cartilage degeneration; the main mechanisms involved in OA onset seem to be oxidative stress and the overproduction of pro-inflammatory cytokines, such as interleukin-1β (IL-1β) and tumour necrosis factor-α (TNF-α). Systemic therapy with anti-inflammatory drugs represents the “gold standard” in OA treatment, and Celecoxib is the first choice. However, it presents limited water solubility, poor in vivo bioavailability, fast metabolism and bloodstream clearance^2. Nanomedicine is considered a good strategy to overcome these problems; in fact, nanosystems are able to improve the solubility and the bioavailability of poorly-soluble drugs, and to control/target the drug release, avoiding undesired side effects. Thanks to its biocompatibility and biodegradability, silk fibroin represents the ideal biomaterial candidate for the nanoparticle production. In this study, we selected silk fibroin nanoparticles (SFNs) as the delivery system for two anti-inflammatory hydrophobic drugs: celecoxib (CXB) and curcumin (CUR). […] The safety and efficacy of nanosystems were determined in terms of hemolytic properties, cytotoxicity, ROS-scavenging activity and anti-inflammatory potency in an OA in vitro cell model. […]
For orientation: The DPPH test is a chemical assay of radical scavenging.

Data set [4] deals with chondrocytes.
Experimental: The safety and efficacy of nanosystems were determined in terms of hemolytic properties, cytotoxicity, ROS-scavenging activity and anti-inflammatory potency in an OA in vitro cell model. In particular, chondrocytes were stimulated with IL-1β to simulate an inflammatory condition, and treated with nanoparticles or free drugs.
For data set [5] the following is noted: Franz cells, porcine cornea, preliminary data, relevant variability. How it is done: To assess their ex vivo corneal permeability, permeation experiments were carried out using fresh and whole porcine corneas mounted on Franz cells.
For data set [6] the following is noted: mass spectroscopy, animal model.
For data set [7] the following is noted: after 3 h of exposure to serum proteins.
Text: (§2) Here, a novel thrombolytic nanoagent is realized by conjugating directly the clinical formulation of tPA to the porous structure of soft discoidal polymeric nanoconstructs (tPA-DPNs).
The test system of data set [8] is blood clots. Nature of the data set: Blood clot resolution in murine mesentery venules. In kind it is in vivo.
Text: as §2
The test system of data set [9] is HeLa and G361. Briefly: Photodynamic ROS production. Format: cell-based. Particulars: TMPyP: 5 μM, 25 Jcm^−2; ZnTPPS4: 0.25 μM, 5 Jcm^−2. How it is done: (§1) Photodynamic therapy (PDT) is currently another option for the treatment of tumors. This therapy is a combination of a photodynamically-active substance and light of a suitable wavelength. Two tumor cell cultures—HeLa and G361 were used for the in vitro study. Cells were cultured in 96-well plates with TMPyP and ZnTPPS4 photosensitizers at concentrations of 0.25 μM, 0.5 μM and 5 μM. As a light source, a diode emitter with a wavelength of 414 nm and a radiation intensity of 5 Jcm^−2, 25 Jcm^−2 was used and at irradiation times of 1 min 33 s, 7min 43 s. In this study, three measurement methods were used—a viability test (MTT), determination of ROS production and monitoring of changes in membrane potential (JC1). […] A suitable combination of photosensitizer and radiation may be an effective therapy for the treatment of cancer.

In data set [10] the test system is HeLa and G361. Briefly: Photodynamic viability test (MTT). Format: cell-based. Particulars: 414 nm irradiation. How it is done: as §1
In data set [11] the test system is intracellular S. aureus. Briefly: Intracellular antibacterial activity in keratinocytes. Particulars: HaCaT cells. In kind it is cell-based, Staphylococcus aureus.
A short description of data set [12]: Stability of rhNGF formulated solutions. In kind it is physicochemical. As to the method: Drug product formulation. The development of the formulation was addressed to obtain a stable rhNGF solution with suitable characteristics for ocular instillation (pH and osmolality in particular). Excipients already used in ophthalmic preparation were preferred. The stability of rhNGF formulated solutions at different concentrations was investigated in the range of temperature −20 °C–+25 °C. […] Chemical oxidative instability was minimized by the appropriate choice of preparation procedures, lowering O2 head space, using inertized containers and by the addition of an antioxidant. Consequently, methionine as component of formulation, O2 containment during the preparation and O2 head space reduction after filling and before sealing of the container were introduced.

The conditions of data set [13]: no reference given; cited from earlier work.

Take TNFα: the “secreted IL6 relative to control cells” value in data set [1] is given as “fivefold higher”. Also, the “secreted IL6” value in [1] (TNFα 10 ng/mL) is “up to 0.058 pg/mL/n° cells”.
On to `COc1ccc2c(c1)c(CC(=O)O)c(C)n2C(=O)c1ccc(Cl)cc1` [IND, indomethacin], for which the oral bioavailability result in [2] is listed as “about 20%”.
As to `Cc1ccc(-c2cc(C(F)(F)F)nn2-c2ccc(S(N)(=O)=O)cc2)cc1` [CXB, celecoxib], the antioxidant effect entry in data set [3] was “inhibitory”. Besides, in data set [4], the cytotoxicity on chondrocytes result is “highly cytotoxic”.
Take `CC[C@H](C)[C@H](NC(=O)[C@H](CCCCN)NC(=O)[C@@H](NC(=O)[C@H](Cc1c[nH]c2ccccc12)NC(=O)[C@H](Cc1ccccc1)NC(=O)[C@H](CCC(N)=O)NC(=O)[C@H](CC(N)=O)NC(=O)[C@H](CCCNC(=N)N)NC(=O)[C@H](CCCNC(=N)N)NC(=O)[C@H](CCSC)NC(=O)[C@H](CCCCN)NC(=O)[C@H](Cc1c[nH]c2ccccc12)NC(=O)[C@H](CCCCN)NC(=O)[C@H](CCCCN)NC(=O)CNC(=O)CNC(=O)c1ccc2c(c1)C(=O)OC21c2ccc(O)cc2Oc2cc(O)ccc21)[C@@H](C)CC)C(=O)N[C@@H](CCC(N)=O)C(=O)N[C@@H](CCCNC(=N)N)C(=O)O` [PNTlys] (5FAM-GGKKWKMRRNQFWIKIQR-OH): the “permeability coefficient / diffusion relative to PNT” value in [5] is on record as “did not affect the behavior”.
With `COc1cc(/C=C/C(=O)CC(=O)/C=C/c2ccc(O)c(OC)c2)ccc1O` [CUR, Curcumin], the cytotoxicity on chondrocytes entry in [4] is on record as “highly cytotoxic”.
For `CC[C@H](C)[C@H](NC(=O)[C@H](CCCCN)NC(=O)[C@@H](NC(=O)[C@H](CCC(N)=O)NC(=O)[C@H](CCCNC(=N)N)NC(=O)CNC(=O)CNC(=O)c1ccc2c(c1)C(=O)OC21c2ccc(O)cc2Oc2cc(O)ccc21)[C@@H](C)CC)C(=O)N[C@@H](Cc1c[nH]c2ccccc12)C(=O)N[C@@H](Cc1ccccc1)C(=O)N[C@@H](CCC(N)=O)C(=O)N[C@@H](CC(N)=O)C(=O)N[C@@H](CCCNC(=N)N)C(=O)N[C@@H](CCCNC(=N)N)C(=O)N[C@@H](CCSC)C(=O)N[C@@H](CCCCN)C(=O)N[C@@H](Cc1c[nH]c2ccccc12)C(=O)N[C@@H](CCCCN)C(=O)N[C@@H](CCCCN)C(=O)O` [PNTarg], in data set [5], the “permeability coefficient / diffusion relative to PNT” value is recorded as “did not influence its diffusion with respect to PNT”.
Consider `CN(Cc1nc2c(N)nc(N)nc2[nH]c1=O)c1ccc(C(=O)N[C@@H](CCC(=O)O)C(=O)O)cc1` [7OH-MTX, 7-hydroxymethotrexate], for which the “metabolite status in vivo” value in data set [6] is given as “not the major metabolite”.
On to “tPA-DPNs: clinical formulation of tPA conjugated to soft discoidal polymeric nanoconstructs”, for which the original activity preserved entry in data set [7] is recorded as “over 60%”. In addition, the “clots dissolved / vessels” value in data set [8] (1.0 mg/kg, about 1 tenth of the clinical dose) came to 60%. Moreover, the “blood clots resolved / vessels recanalized” value in data set [8] (intravenous, 2.5 mg/kg) is recorded as roughly 90%.
Turning to `C[n+]1ccc(-c2c3nc(c(-c4cc[n+](C)cc4)c4ccc([nH]4)c(-c4cc[n+](C)cc4)c4nc(c(-c5cc[n+](C)cc5)c5ccc2[nH]5)C=C4)C=C3)cc1` [TMPyP], the ROS production result in data set [9] is reported as “more pronounced increase”. In addition, in data set [10], the “efficacy in MTT test” value is given as “higher efficacy”.
As to `CNC(C)C1CCC(N)C(OC2C(N)CC(N)C(OC3OCC(C)(O)C(NC)C3O)C2O)O1` (stereo not drawn) [GM, gentamicin], in data set [11], the intracellular antibacterial activity result is reported as “significant intracellular activity”.
With “rhNGF: human recombinant Nerve Growth Factor”, the deamidation on storage entry in data set [12] (formulated solutions at different concentrations, −20 °C–+25 °C) was “no deamidation was observed”. Further, the oxidation on storage entry in data set [12] (formulations after 3–9 months of storage) is on record as “only an oxidized rhNGF form was observed in some cases”.
`CO[C@H]1/C=C/O[C@@]2(C)Oc3c(C)c(O)c4c(O)c(c(/C=N/N5CCN(C)CC5)c(O)c4c3C2=O)NC(=O)/C(C)=C\C=C\[C@H](C)[C@H](O)[C@@H](C)[C@@H](O)[C@@H](C)[C@H](OC(C)=O)[C@@H]1C` [rifampicin]: the solubility in water in data set [13] is given as 0.14 % w/v.
